Earlier results, collected in patent US20150275302A1, “DETERMINATION OF SINGLE NUCLEOTIDE POLYMORPHISMS USEFUL TO PREDICT RESPONSE FOR RASAGILINE” (TEVA PHARMACEUTICAL INDUSTRIES, LTD., priority 2014, published 2015).

Details: in vivo

absolute bioavailability: about 36%
SMILES: C#CCN[C@@H]1CCc2ccccc21 [rasagiline, R(+)-N-propargyl-l-aminoindan]
